Results reported in US8742123B2, “HIV integrase inhibitors from pyridoxine” (TaiMed Biologics, Inc., priority 2008, dated 2014).
pEC50, pIC50, pKi: −log10 of the molar value. Where two headings read alike, the source gives them in different places.

Key:
NL4.3 virus = experiment: multi-cycle antiviral activity in absence and presence of human serum, p24 ELISA; assay type: cell-based, HIV-1; conditions: for EC50: Human immunodeficiency virus 1, 144 h
Procedure: (§1) Protein binding was tested by Rapid Equilibrium Dialysis (RED) method (The RED (Rapid equilibrium Dialysis) Device inserts instruction manual. Pierce, Rockford Ill.). […] The red chamber was loaded with 0.3 mL of samples containing compounds. The white chamber contained 0.5 mL of D-PBS buffer only. The plate was incubated at 37° C. while shaking at 150 rpm for 5 hours. Aliquots from both chambers were analyzed by LC/MS/MS. The multi-cycle antiviral activity in the absence and presence of human serum was determined by p24 ELISA measurement after 6 days of NL4.3 virus infection.

[1] = protein binding by Rapid Equilibrium Dialysis (RED), human serum; assay type: in vitro ADME; conditions: 37° C., 100% HS
Procedure: as §1

wild type NL-4.3 = experiment: multi-cycle infection assay in MT-4 cells (MTT cytoprotection); assay type: cell-based, HIV-1; conditions: Human immunodeficiency virus 1, MT4, 144 h, read-out: EC50 (nM) multi-cycle
Procedure: The antiviral efficacies of the integrase inhibitor compounds of the invention were evaluated based on EC50 measures obtained from two different in vitro HIV infection assay using cultured MT-4 cells: (1) a multi-cycle infection where cells were infected with wild type NL-4.3) and (2) a single-cycle infection where the cells were infected with a luciferase-bearing, envelope defective (env-) NL-4.3 virus pseudotyped with HIV-1 env (HXBc2.
The incubation period for the multi-cycle infection assay was 6 days. Cell viability (cytoprotection) and EC50 were determined using the colorimetric MTT assay (A. J. Japour et al, Antimicrobial Agents and Chemotherapy, 37, 1095-1101, 1993 and R. Pauwels et al. Journal of Virological Methods, 20, 309-321, 1988).

[2] = protein binding by Rapid Equilibrium Dialysis (RED), 10% FBS-RPMI; assay type: in vitro ADME; conditions: bovine, 37° C.
Procedure: as §1

[3] = human liver microsome stability; assay type: in vitro ADME; conditions: pH 7.4, 1 μM compound
Procedure: After pre-incubation, the assay was started by the addition of 1 μM of compound. Samples were taken after 0, 15, 30, 60, 90 and 120 minutes of incubation (Fisher M B, Drug Metabolism and Disposition, 2000, 28, 560-566). GraphPad Prism software was used for data analysis. The results, showing that the compounds of the invention are metabolically stable in Human liver microsomes, are provided in Table 7 below.

CYP3A4 = biological target: T1, CYP3A4 (Homo sapiens, UniProt P08684); experiment: human CYP inhibition in human liver microsomes; assay type: in vitro ADME; conditions: CYP3A4 (printed CYP34A)
T1 construct: the incubation medium contained 0.3 mg/mL human liver microsomes; from tissue; host or cells: human liver microsomes
Procedure: (§2) For the human CYP inhibition experiments, the incubation medium contained 0.3 mg/mL human liver microsomes, 100 mM phosphate buffer pH 7.4, 5 mM MgCl2, 1 mM EDTA. The respective substrates for CYP3A4, CYP2C9 and CYP2D6 were added at various concentrations in the presence or absence of the compounds tested. After pre-incubation, the reaction was initiated by the addition of NADPH at final concentration 1 mM. Incubation times were 10, 60 and 15 minutes for CYP3A4, CYP2C9 and CYP2D6, respectively (Walsky R L and Obach R S., Drug Metabolism and Disposition, 2004, 32, 647-660). GraphPad Prism software was used for data analysis.

CYP2C9 = biological target: T2, CYP2C9 (Homo sapiens, UniProt P11712); experiment: human CYP inhibition in human liver microsomes; assay type: in vitro ADME
T2 construct: the incubation medium contained 0.3 mg/mL human liver microsomes; from tissue; host or cells: human liver microsomes
Procedure: as §2

HIV-1 isolate 94US33931N = experiment: acute infection assay in PHA-stimulated PBMCs, supernatant RT activity; assay type: cell-based; conditions: Human immunodeficiency virus 1, PBMC, 144 h, 6 day incubation
Procedure: (§3) Acute infection assays using fresh human phytohemagglutinin (PHA)-stimulated peripheral blood mononuclear cells (PBMCs) were carried out. PBMCs were stimulated with IL-2 and infected with one of two wild-type drug-sensitive clinical HIV-1 isolates. The strains HIV-1 used for the infections, 91US005 (primary R5 strain of HIV-1) and 94US33931N, are both Group M, Subtype B viruses. Antiviral activity was determined as a reduction in supernatent reverse transcriptase (RT) activity after a 6 day incubation.

HIV-1 isolate 91US005 = experiment: as above; assay type: cell-based; conditions: Human immunodeficiency virus 1, PBMC, 144 h, HIV-1 isolate 91US005, 6 day incubation
Procedure: as §3

[4] = pharmacokinetic (PK) profile in rats; assay type: in vivo; conditions: female Sprague-Dawley rats, 5 mg/kg intravenously, 50 mg/kg orally, plasma LC/MS/MS
Procedure: Female Sprague-Dawley rats were randomly selected and assigned to two groups. A group of 13 rats were administered 5 mg/kg of compound 2 intravenously. A second group of 8 rats were administered 50 mg/kg of compound 2 orally. Following the dosing, blood was collected at 7 different time points. Plasma samples obtained from the blood samples were analyzed by LC/MS/MS and the bioavailability of compound 2 was determined.

[5] = biological target: T3, recombinant HIV-1 integrase (Human immunodeficiency virus type 1 group M subtype B, UniProt P12497); experiment: integrase strand transfer assay; assay type: biochemical; conditions: compounds added after assembly, 10% DMSO, read-out: ST IC50
T3 construct: Recombinant integrase (250 ng/well) was assembled onto the immobilized donor oligonucleotide
Procedure: IC50 was determined for the compounds of the inventions based on data generated in strand transfer assays. The IC50 is a measure of the ability of the compounds tested to inhibit the integration of 3′-processed oligonucleotides by recombinant HIV-1 integrase.
Strand transfer assays were performed essentially as described in Hazuda, D. J.; Felock, P.; Hastings, J. C.; Pramanik, B.; Wolfe, A. J. Virol. 1997, 71, 7005-7011). Donor DNA (1.5 pmol/well), biotinylated on the 5′ end of the strand processed by integrase, was immobilized onto streptavidin-coated microtiter plates. Recombinant integrase (250 ng/well) was assembled onto the immobilized donor oligonucleotide in reaction buffer (20 mM Hepes, pH 7.6, 5 mM B-mercaptoethanol, 50 ug/mL bovine serum albumin) containing 30 mM MnCl2. Excess enzyme was removed, and the complexes were washed extensively prior to the addition of the target DNA substrate. The target DNA (0.75 pmoles/well) substrate was labeled on each 3′ end with FITC. After strand transfer, the FITC-labeled products were detected using an anti-FITC antibody conjugated with alkaline phosphatase (Roche) and a chemiluminescent substrate (Tropix CSPD with Sapphire II enhancer, Applied Biosystems). The assay was performed in a final concentration of 10% DMSO. To specifically evaluate inhibition of strand transfer, compounds were added after assembly, just prior to the addition of the target DNA.
The results of the integrase strand transfer assay are reported as IC50 values. IC50 values were determined using a sigmoidal dose-response equation. The formula used for calculating % inhibition was: % Inhibition=[1-(sample counts/average of positive control)]*100. […] Using GraphPad Prism or ActivityBase (IDBS) software IC50 was determined using following sigmoidal dose-response equation: Y=(A+((B−A)/(1+((C/X)^D))))

[6] = MT-4 cells, wild type NL-4.3, 6 days, MTT
[7] = human liver microsomes, 1 mM NADPH and 1 mM UDPGA, read-out: Half-life in HLM (hrs) NADPH/UDPGA (converted)
[8] = human liver microsomes, 1 mM NADPH, read-out: Half-life in HLM (hrs) NADPH (converted)
[9] = human liver microsomes, 1 mM UDPGA, read-out: Half-life in HLM (hrs) UDPGA (converted)

T1 sequence (P08684 whole entry): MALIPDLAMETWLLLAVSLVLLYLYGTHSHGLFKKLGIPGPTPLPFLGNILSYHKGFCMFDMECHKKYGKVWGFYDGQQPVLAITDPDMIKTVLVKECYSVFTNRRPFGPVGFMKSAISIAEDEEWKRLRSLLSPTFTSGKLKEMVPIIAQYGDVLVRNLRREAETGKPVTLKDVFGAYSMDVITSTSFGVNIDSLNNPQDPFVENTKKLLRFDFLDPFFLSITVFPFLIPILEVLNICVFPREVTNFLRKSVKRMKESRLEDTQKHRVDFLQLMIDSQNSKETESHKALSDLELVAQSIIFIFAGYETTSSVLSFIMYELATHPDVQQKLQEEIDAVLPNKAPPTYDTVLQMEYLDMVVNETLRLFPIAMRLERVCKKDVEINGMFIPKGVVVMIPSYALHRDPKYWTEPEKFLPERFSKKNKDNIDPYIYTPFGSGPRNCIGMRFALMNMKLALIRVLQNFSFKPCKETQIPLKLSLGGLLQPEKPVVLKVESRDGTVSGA
T2 sequence (P11712 whole entry): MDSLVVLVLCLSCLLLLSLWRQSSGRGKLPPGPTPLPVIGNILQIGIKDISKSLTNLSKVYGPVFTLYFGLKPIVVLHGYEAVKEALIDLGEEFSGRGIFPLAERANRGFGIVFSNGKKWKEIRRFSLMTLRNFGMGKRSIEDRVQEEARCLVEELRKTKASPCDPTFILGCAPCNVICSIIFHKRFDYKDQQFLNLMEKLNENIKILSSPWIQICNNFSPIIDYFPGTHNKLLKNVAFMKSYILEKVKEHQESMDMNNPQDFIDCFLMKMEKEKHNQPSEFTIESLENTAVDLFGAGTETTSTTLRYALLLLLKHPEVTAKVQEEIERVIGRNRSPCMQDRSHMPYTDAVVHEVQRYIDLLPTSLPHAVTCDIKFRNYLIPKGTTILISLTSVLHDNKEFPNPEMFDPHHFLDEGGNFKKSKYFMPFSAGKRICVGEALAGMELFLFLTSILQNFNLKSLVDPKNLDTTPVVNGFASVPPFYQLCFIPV

Compound: Cc1nnc(C(=O)NC(C)(C)c2nc(C(=O)NCc3ccc(F)cc3)c(O)c(=O)n2C)o1 [Raltegravir, reference compound]
- EC50 (NL4.3 virus; read-out: EC50 (uM) 10% FBS): 0.047 µM
- EC50 (NL4.3 virus; read-out: EC50 (uM) 10% FBS + 40% HS): 0.064 µM
- fraction unbound at 5 hours, 1 uM ([1]; serum): 0.133
- EC50 (wild type NL-4.3): 20 nM
- fraction unbound at 5 hours, 1 uM ([2]; serum): 0.653
- half-life at 1 μM ([3]; microsomes, 1 mM NADPH and 1 mM UDPGA, read-out: Half-life in HLM (hrs) NADPH/UDPGA (converted)): 11 h
- half-life at 1 μM ([3]; microsomes, 1 mM NADPH, read-out: Half-life in HLM (hrs) NADPH (converted)): 19.7 h
- half-life at 1 μM ([3]; microsomes, 1 mM UDPGA, read-out: Half-life in HLM (hrs) UDPGA (converted)): 7.03 h

Compound: O=C(NCc1ccc(F)cc1)c1cnc(C(=O)NOCc2ccccc2)c(OCc2ccccc2)c1CO [Example 1, N^2,3-bis(benzyloxy)-N^5-(4-fluorobenzyl)-4-(hydroxymethyl)pyridine-2,5-dicarboxamide]
- pKi (CYP3A4): 5.29
- pKi (CYP2C9): 4.20
- Fold-change with HS (NL4.3 virus; EC50 with 40% HS versus 10% FBS): 2.1
- EC50 (NL4.3 virus; 10% FBS + 40% HS, p24 ELISA after 6 days, read-out: EC50 (uM) 10% FBS + 40% HS): 0.481 µM
- EC50 (NL4.3 virus; 10% FBS, p24 ELISA after 6 days, read-out: EC50 (uM) 10% FBS): 0.227 µM
- fraction unbound at 5 hours, 1 uM ([1]; human serum (100%)): 0.11
- EC50 (wild type NL-4.3; [6]): > 10000 nM
- fraction unbound at 5 hours, 1 uM ([2]; 10% FBS-RPMI): 0.475
- half-life at 1 μM [3, 7]: 3.9 h
- half-life at 1 μM [3, 8]: 7.4 h
- half-life at 1 μM [3, 9]: 19.7 h

Compound: O=C(NCc1ccc2c(c1)OCO2)c1cnc(C(=O)NOCc2ccccc2)c(OCc2ccccc2)c1CO [Example 3, N^5-(benzo[d][1,3]dioxol-5-ylmethyl)-N2,3-bis(benzyloxy)-4-(hydroxymethyl)pyridine-2,5-dicarboxamide]
- pKi (CYP3A4): 3.23
- pEC50 (HIV-1 isolate 94US33931N): 7.52
- pEC50 (HIV-1 isolate 91US005): 7.03
- EC50 (wild type NL-4.3; [6]): > 10000 nM
- half-life at 1 μM [3, 7]: 1.95 h
- half-life at 1 μM [3, 8]: 6.18 h
- half-life at 1 μM [3, 9]: 3.8 h

Compound: O=C(NCc1ccc(F)cc1)c1cnc(C(=O)NO)c(O)c1CO [Example 2, N^5-(4-fluorobenzyl)-N^2,3-dihydroxy-4-(hydroxymethyl)pyridine-2,5-dicarboxamide]
- adsorption / PK profile (FIG. 1) [4]: high adsorption
- pEC50 (HIV-1 isolate 94US33931N): 6.91
- pEC50 (HIV-1 isolate 91US005): 7.12
- fraction unbound at 5 hours, 1 uM ([1]; human serum (100%)): 0.155
- EC50 (wild type NL-4.3; [6]): 358 nM
- fraction unbound at 5 hours, 1 uM ([2]; 10% FBS-RPMI): 0.681
- half-life at 1 μM [3, 7]: 5.9 h
- half-life at 1 μM [3, 8]: 5 h
- half-life at 1 μM [3, 9]: 16 h
- pIC50 [5]: 6.52
